Assays:
wild oat = assay: Test B pre/postemergence wild oat; type: in vivo, Avena fatua
How it was run: (§1)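 Response is a visual 0-to-10 score relative to untreated plants, where 0 means no effect and 10 means complete control, taken twelve to sixteen days after application. Treatments went onto soil at planting and onto foliage of 1- to 4-leaf plants, using a surfactant-containing non-phytotoxic solvent.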

surinam grass = assay: Test B pre/postemergence surinam grass; type: in vivo, Brachiaria decumbens
How it was run: as §1

bamyardgrass = assay: Test B flood test barnyardgrass; type: in vivo, Echinochloa crus-galli
How it was run: (§2)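 Flood test on plants grown to the 2-leaf stage; treated plants kept in greenhouse twelve to sixteen days, then visually rated against controls on a 0 (no effect) to 10 (complete control) scale.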

giant foxtail = assay: Test B pre/postemergence giant foxtail; type: in vivo, Setaria faberii
How it was run: as §1

blackgrass = assay: Test B pre/postemergence blackgrass; type: in vivo, Alopecurus myosuroides
How it was run: as §1

morningglory = assay: Test B pre/postemergence morningglory; type: in vivo, Ipomoea hederacea
How it was run: as §1

rape = assay: Test B pre/postemergence rape; type: in vivo, Brassica napus
How it was run: as §1

soybean = assay: Test B pre/postemergence soybean; type: in vivo, Glycine max
How it was run: as §1

cocklebur = assay: Test B pre/postemergence cocklebur; type: in vivo, Xanthium strumarium
How it was run: as §1

velvetleaf = assay: Test B pre/postemergence velvetleaf; type: in vivo, Abutilon theophrasti
How it was run: as §1

purple nutsedge = assay: Test B pre/postemergence purple nutsedge; type: in vivo, Cyperus rotundus
How it was run: as §1

wheat = assay: Test B pre/postemergence wheat; type: in vivo, Triticum aestivum
How it was run: as §1

bedstraw = assay: Test B pre/postemergence bedstraw; type: in vivo, Galium aparine
How it was run: as §1

pigweed = assay: Test B pre/postemergence pigweed; type: in vivo, Amaranthus retroflexus
How it was run: as §1

smallflower flatsedge = assay: Test B flood test smallflower flatsedge; type: in vivo, Cyperus difformis
How it was run: as §2

rice = assay: Test B flood test rice; type: in vivo, Oryza sativa
How it was run: as §2

sugar beet = assay: Test B pre/postemergence sugar beet; type: in vivo, Beta vulgaris
How it was run: as §1

crabgrass = assay: Test B pre/postemergence crabgrass; type: in vivo, Digitaria sanguinalis
How it was run: as §1

corn = assay: Test B pre/postemergence corn; type: in vivo, Zea mays
How it was run: as §1

duck salad = assay: Test B flood test duck salad; type: in vivo, Heteranthera limosa
How it was run: as §2

[1] = Preemergence, Rate 62 g/ha, scale of 0 to 10 where 0 is no effect and 10 is complete control
[2] = Preemergence, Rate 250 g/ha, scale of 0 to 10 where 0 is no effect and 10 is complete control
[3] = Preemergence, Rate 500 g/ha, scale of 0 to 10 where 0 is no effect and 10 is complete control
[4] = Rate 125 g/ha, Preemergence, scale of 0 to 10 where 0 is no effect and 10 is complete control
[5] = Rate 500 g/ha, Postemergence, scale 0 to 10, 0 no effect, 10 complete control
[6] = Rate 62 g/ha, Postemergence, scale of 0 to 10 where 0 is no effect and 10 is complete control
[7] = Rate 62 g/ha, headed Pre-emergence (flood test species), scale 0 to 10 (0 no effect, 10 complete control)
[8] = Rate 125 g/ha, Pre-emergence, flood test species, scale 0 to 10 where 0 is no effect and 10 is complete control
[9] = Rate 250 g/ha, Pre-emergence, flood-test species, scale 0 to 10, 0 is no effect, 10 is complete control
[10] = Rate 500 g/ha, Pre-emergence, flood test species, scale 0 to 10 (0 no effect, 10 complete control)
[11] = Rate 125 g/ha, Postemergence, scale 0 to 10

CCCCCCCCCCCCCCCCCCCn1c(=O)on(C(=O)N(c2ccc(F)cc2)C(C)C)c1=O [Compound 253]
0: Wild oats plant response rating (wild oat; [1]) | Wild oats plant response rating (wild oat; [2]) | Plant response rating, Wild oats (wild oat; [3]) | Wild oats plant response rating (wild oat; [4]) | Wild oats plant response rating (wild oat; [5]) | B. signalgrass plant response rating (surinam grass; [1]) | B. signalgrass plant response rating (surinam grass; [2]) | Plant response rating, B. signalgrass (surinam grass; [3]) | B. signalgrass plant response rating (surinam grass; [6]) | B. signalgrass plant response rating (surinam grass; Rate 125 g/ha, Postemergence, scale 0 (no effect) to 10 (complete control)) | B. signalgrass plant response rating (surinam grass; [4]) | Plant response rating (0 to 10; 0 is no effect, 10 is complete control), B. signalgrass (surinam grass; Rate 250 g/ha, Postemergence) | B. signalgrass plant response rating (surinam grass; [5]) | Barnyardgrass plant response rating (bamyardgrass; [7]) | Barnyardgrass plant response rating (bamyardgrass; [8]) | Barnyardgrass plant response rating (bamyardgrass; [9]) | Barnyardgrass plant response rating (bamyardgrass; [10]) | Giant foxtail plant response rating (giant foxtail; [1]) | Giant foxtail plant response rating (giant foxtail; [2]) | Plant response rating, Giant foxtail (giant foxtail; [3]) | Giant foxtail plant response rating (giant foxtail; [4]) | Plant response rating (0 to 10; 0 is no effect, 10 is complete control), Giant foxtail (giant foxtail; Rate 250 g/ha, Postemergence) | Giant foxtail plant response rating (giant foxtail; [5]) | Blackgrass plant response rating (blackgrass; [1]) | Blackgrass plant response rating (blackgrass; [2]) | Plant response rating, Blackgrass (blackgrass; [3]) | Blackgrass plant response rating (blackgrass; [6]) | Blackgrass plant response rating (blackgrass; [11]) | Blackgrass plant response rating (blackgrass; [4]) | Plant response rating (0 to 10; 0 is no effect, 10 is complete control), Blackgrass (blackgrass; Rate 250 g/ha, Postemergence) | Blackgrass plant response rating (blackgrass; [5]) | Morningglory plant response rating (morningglory; [1]) | Morningglory plant response rating (morningglory; [2]) | Plant response rating, Morningglory (morningglory; [3]) | Morningglory plant response rating (morningglory; [4]) | Plant response rating (0 to 10; 0 is no effect, 10 is complete control), Morningglory (morningglory; Rate 250 g/ha, Postemergence) | Morningglory plant response rating (morningglory; [5]) | Rape plant response rating (rape; [1]) | Rape plant response rating (rape; [2]) | Plant response rating, Rape (rape; [3]) | Rape plant response rating (rape; [4]) | Plant response rating (0 to 10; 0 is no effect, 10 is complete control), Rape (rape; Rate 250 g/ha, Postemergence) | Rape plant response rating (rape; [5]) | Soybean plant response rating (soybean; [1]) | Soybean plant response rating (soybean; [2]) | Plant response rating, Soybean (soybean; [3]) | Soybean plant response rating (soybean; [4]) | Soybean plant response rating (soybean; [5]) | Cocklebur plant response rating (cocklebur; [1]) | Cocklebur plant response rating (cocklebur; [2]) | Plant response rating, Cocklebur (cocklebur; [3]) | Cocklebur plant response rating (cocklebur; [6]) | Cocklebur plant response rating (cocklebur; [11]) | Cocklebur plant response rating (cocklebur; [4]) | Plant response rating (0 to 10; 0 is no effect, 10 is complete control), Cocklebur (cocklebur; Rate 250 g/ha, Postemergence) | Cocklebur plant response rating (cocklebur; [5]) | Velvetleaf plant response rating (velvetleaf; [1]) | Velvetleaf plant response rating (velvetleaf; [2]) | Plant response rating, Velvetleaf (velvetleaf; [3]) | Velvetleaf plant response rating (velvetleaf; [4]) | Velvetleaf plant response rating (velvetleaf; [5]) | Plant response rating, Nutsedge (purple nutsedge; [3]) | Plant response rating (0 to 10; 0 is no effect, 10 is complete control), Nutsedge (purple nutsedge; Rate 250 g/ha, Postemergence) | Nutsedge plant response rating (purple nutsedge; [5]) | Wheat plant response rating (wheat; [1]) | Wheat plant response rating (wheat; [2]) | Plant response rating, Wheat (wheat; [3]) | Wheat plant response rating (wheat; [4]) | Wheat plant response rating (wheat; [5]) | Bedstraw plant response rating (bedstraw; [1]) | Bedstraw plant response rating (bedstraw; [2]) | Plant response rating, Bedstraw (bedstraw; [3]) | Bedstraw plant response rating (bedstraw; [6]) | Bedstraw plant response rating (bedstraw; [11]) | Bedstraw plant response rating (bedstraw; [4]) | Plant response rating (0 to 10; 0 is no effect, 10 is complete control), Bedstraw (bedstraw; Rate 250 g/ha, Postemergence) | Bedstraw plant response rating (bedstraw; [5]) | Redroot pigweed plant response rating (pigweed; [1]) | Redroot pigweed plant response rating (pigweed; [2]) | Plant response rating, Redroot pigweed (pigweed; [3]) | Redroot pigweed plant response rating (pigweed; [4]) | Plant response rating (0 to 10; 0 is no effect, 10 is complete control), Redroot pigweed (pigweed; Rate 250 g/ha, Postemergence) | Redroot pigweed plant response rating (pigweed; [5]) | S. Flatsedge plant response rating (smallflower flatsedge; [7]) | S. Flatsedge plant response rating (smallflower flatsedge; [8]) | S. Flatsedge plant response rating (smallflower flatsedge; [9]) | S. Flatsedge plant response rating (smallflower flatsedge; [10]) | Rice plant response rating (rice; [7]) | Rice plant response rating (rice; [8]) | Rice plant response rating (rice; [9]) | Rice plant response rating (rice; [10]) | Sugarbeets plant response rating (sugar beet; [1]) | Sugarbeets plant response rating (sugar beet; [2]) | Plant response rating, Sugarbeets (sugar beet; [3]) | Sugarbeets plant response rating (sugar beet; [4]) | Sugarbeets plant response rating (sugar beet; [5]) | Crabgrass plant response rating (crabgrass; [1]) | Crabgrass plant response rating (crabgrass; [2]) | Plant response rating, Crabgrass (crabgrass; [3]) | Crabgrass plant response rating (crabgrass; [4]) | Plant response rating (0 to 10; 0 is no effect, 10 is complete control), Crabgrass (crabgrass; Rate 250 g/ha, Postemergence) | Crabgrass plant response rating (crabgrass; [5]) | Corn plant response rating (corn; [1]) | Corn plant response rating (corn; [2]) | Plant response rating, Corn (corn; [3]) | Corn plant response rating (corn; [6]) | Corn plant response rating (corn; [11]) | Corn plant response rating (corn; [4]) | Plant response rating (0 to 10; 0 is no effect, 10 is complete control), Corn (corn; Rate 250 g/ha, Postemergence) | Corn plant response rating (corn; [5]) | Ducksalad plant response rating (duck salad; [7]) | Ducksalad plant response rating (duck salad; [8]) | Ducksalad plant response rating (duck salad; [9]) | Ducksalad plant response rating (duck salad; [10])
